Measured values taken from PMC10542788, “Discovery of a cystathionine γ-lyase (CSE) selective inhibitor targeting active-site pyridoxal 5′-phosphate (PLP) via Schiff base formation” (Scientific Reports, 2023).

Legend:
rCSE [1] = biological target: T1, rCSE (Rattus norvegicus, UniProt P18757); assay: rCSE inhibition, cysteine persulfide (sulfane sulfur) production from cystine detected with SSP4; assay type: biochemical; set-up: His-tag (C); made in house; host or cells: E. coli BL21; details: cystine as substrate, SSP4 probe, mean ± S.E.
T1 sequence (P18757 whole entry): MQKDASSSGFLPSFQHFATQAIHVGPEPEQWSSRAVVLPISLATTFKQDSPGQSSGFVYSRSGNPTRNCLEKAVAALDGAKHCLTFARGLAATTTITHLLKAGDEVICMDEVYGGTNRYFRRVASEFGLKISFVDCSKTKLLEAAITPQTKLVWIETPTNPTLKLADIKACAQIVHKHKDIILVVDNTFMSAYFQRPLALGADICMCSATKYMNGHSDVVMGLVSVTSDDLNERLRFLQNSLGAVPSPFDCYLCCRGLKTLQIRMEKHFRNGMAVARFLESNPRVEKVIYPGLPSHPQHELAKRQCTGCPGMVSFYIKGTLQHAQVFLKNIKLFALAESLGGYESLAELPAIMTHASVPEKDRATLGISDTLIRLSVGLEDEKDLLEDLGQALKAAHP
Description: We further examined whether or not 1 can inhibit the production of cysteine persulfide from cystine by CSE (Supplementary Fig. S5)[10], using a commercially available sulfane sulfur-detecting probe, SSP4.
10 µL of 0.5 mM cystine solution in 30 mM HEPES (pH 7.4) was added to 10 µL of solution containing 50 µg/mL rCSE, 100 µM PLP, 1 µM SSP4 (Dojindo), 0.005% tween 20 and various concentrations of the inhibitor (0.5% DMSO as a cosolvent). The mixture was incubated at 37 °C for 60 min and the fluorescence intensity of SSP4 was measured with a microplate reader.

rCSE [2] = biological target: T1, rCSE; assay: rCSE inhibition, H2S detection by gas chromatography; assay type: biochemical; set-up: His-tag (C); made in house; host or cells: E. coli BL21; details: 1.5 mM cysteine, 100 μM PLP, mean ± S.E., read-out: IC50, inhibition of H2S production by rCSE
Description: Next, in order to further confirm the CSE-inhibitory ability of 1, we employed a gas chromatographic method. A mixture of 30 μg/mL rCSE, 100 μM PLP and 1.5 mM cysteine in 30 mM HEPES buffer (pH 7.4) with or without 1 or PAG was incubated in a sealed glass vial, and the air containing enzymatically produced H2S in the glass vial was analyzed by gas chromatography.
Supplementary Figure S4. (a) H2S production by rCSE in the presence of various concentrations of 1 was measured by gas chromatography. A solution of 30 μg/mL rCSE, 100 μM PLP and 1.5 mM cysteine in 30 mM HEPES buffer (pH 7.4) was incubated at r.t. for 60 min. Error bars represent ±S.D. (n = 4). (b) Inhibitory activity of 1 (mean ± S.E.). H2S was detected by gas chromatography. Error bars represent ± S.D. (n = 4).

hCSE = biological target: T2, hCSE (Homo sapiens, UniProt P32929); assay: hCSE inhibition in living HEK293T cells expressing hCSE (pretreatment, wash, lysis, HSip-1); assay type: cell-based
T2 construct: expressed in transfected cells; host or cells: HEK293T
T2 sequence (P32929 whole entry): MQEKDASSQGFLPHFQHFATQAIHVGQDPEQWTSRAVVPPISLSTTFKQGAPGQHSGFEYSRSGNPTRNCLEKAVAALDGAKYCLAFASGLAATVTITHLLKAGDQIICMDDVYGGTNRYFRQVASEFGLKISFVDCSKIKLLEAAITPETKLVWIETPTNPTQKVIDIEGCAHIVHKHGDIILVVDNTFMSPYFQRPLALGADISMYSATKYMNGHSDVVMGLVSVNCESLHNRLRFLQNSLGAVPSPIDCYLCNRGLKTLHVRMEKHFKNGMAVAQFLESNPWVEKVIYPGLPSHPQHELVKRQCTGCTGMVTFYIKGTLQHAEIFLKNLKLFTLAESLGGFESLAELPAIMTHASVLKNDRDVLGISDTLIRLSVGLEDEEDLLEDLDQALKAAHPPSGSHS
Description: (§1) We next examined the suitability of 1 for live-cell experiments. First, we performed CCK-8 assay (Dojindo) to examine its cytotoxicity. COS7 cells were incubated with various concentrations of 1 for 27 h at 37 °C under 5% CO2 and the cell viability was assessed. […] We then examined whether 1 can inhibit the enzymatic activity of hCSE in living cells by employing an indirect approach (Supplementary Fig. S12). HEK293T cells expressing hCSE were incubated with 0–1 mM 1 for 30 min, then washed twice with phosphate-buffered saline (PBS), and lysed in RIPA buffer (50 mM Tris–HCl buffer (pH 7.6), 150 mM NaCl, 1% Nonidet P40 Substitute, 0.5% sodium deoxycholate, protease inhibitor cocktail, 0.1% SDS). The inhibitory activity of 1 was evaluated by fluorescence detection after adding 1.5 mM cysteine, 100 μM PLP and 1 μM HSip-1 to these cell lysates.
Supplementary Figure S12. Experimental protocol for the indirect assessment of the hCSE-inhibitory activity of 1 in living cells. […] L-Cysteine (substrate), PLP and HSip-1 were added to the cell lysate (450 μg/mL cell lysate, 1.5 mM L-cysteine, 100 μM PLP, 1 μM HSip-1 in 30 mM HEPES buffer (pH 7.4) containing 0.005% Tween 20), and the fluorescence was measured with a plate reader (Ex. = 490 nm, Em. = 510 nm).

ALT = ALT inhibition, coupled absorbance assay (NADH, 340 nm); assay type: biochemical; details: 30 µM
Description: The selectivity of 1, 2 and PAG for rCSE over other RSS-producing enzymes, CBS and 3MST, was examined (Fig. 4a). CBS is a PLP-dependent enzyme, like CSE, and produces H2S from cysteine and homocysteine as substrates. 3MST is also an H2S-producing enzyme, but is not PLP-dependent and uses 3-mercaptopyruvate as a substrate. The amount of H2S produced by CBS or 3MST was evaluated in the presence or absence of the inhibitor by measuring the fluorescence intensity of HSip-1. […] We also examined the inhibitory activity towards two other PLP-dependent enzymes, MGL and ALT. MGL metabolizes L-methionine to α-ketobutyric acid, methanethiol and ammonia, and is inhibited by PAG[14]. MGL also produces H2S from homocysteine as a substrate, and this activity of MGL can be measured by fluorescence detection with HSip-1. […] The enzymatic activity of ALT can be assessed by means of a coupled assay using the reduction of pyruvate to L-lactate with lactate dehydrogenase and NADH and measuring the change in absorption of NADH.
An alanine aminotransferase activity assay kit (BioVision, Inc.) was used to measure the activity of ALT. A mixture of L-alanine, NADH, LDH (lactate dehydrogenase) and ALT was incubated at 37 °C for 15 min, then α-ketoglutarate was added to the mixture and the absorbance at 340 nm was measured with a microplate reader.

COS7 cells = assay: CCK-8 cell viability assay; assay type: cell-based; details: 27 h, 37 °C
Description: as §1
We performed CCK-8 (Cell Counting Kit-8) assay (Dojindo) to examine cell viability. […] This absorbance is proportional to the number of living cells. […] The absorbance at 450 nm was measured with a microplate reader (EnVision, Perkin Elmer).
Supplementary Figure S11. […] COS7 cells were incubated in DMEM (Dulbecco’s modified Eagle’s medium) containing 1 (1, 3, 10, 30 and 100 µM) for […] and the cell viability was measured using CCK-8 reagent. […]

NNC(=O)C(N)=O [Compound 1, oxamic hydrazide]
IC50 (rCSE [1]): 33 ± 3 µM
IC50 (rCSE [2]): 23 ± 6 µM
IC50 (hCSE; HEK293T cells expressing hCSE incubated 30 min with 1, washed, lysed, mean ± S.E., read-out: IC50, inhibitory activity towards hCSE in living cells): 170 ± 33 µM
cell-membrane permeability (hCSE; concluded from inhibition of hCSE in living cells): sufficiently cell-membrane permeable
inhibitory activity towards ALT / selectivity for CSE over ALT (ALT): high selectivity for CSE over MGL and ALT
cytotoxicity (cell viability) (COS7 cells): No cytotoxicity was observed below 100 µM
